Reference: patent US10597388B2, “Pyridazinone herbicides” (FMC CORPORATION, priority 2014, dated 2020)

Assays:
Format in all cases: in vivo
[1] = test system: ryegrass, Italian (Italian ryegrass, Lolium multiflorum); test: Test C greenhouse herbicide test, pre- and postemergence
In short: (§1)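 Percent-control ratings (0 none, 100 complete) came from visual comparison with controls held alongside in the greenhouse for 13–15 d. Treatments covered soil application at sowing and foliar application to young plants 2–18 cm tall.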

[2] = test system: ragweed (common ragweed, Ambrosia elatior); test: as above
In short: as §1

[3] = test system: lambsquarters (Chenopodium album); test: as above
In short: as §1

[4] = test system: johnsongrass (Sorghum halepense); test: as above
In short: as §1

[5] = test system: wheat (winter wheat, Triticum aestivum); test: as above
In short: as §1

corn (Zea mays) = test: as above
In short: as §1

[6] = test system: morningglory (Ipomoea coccinea); test: as above
In short: as §1

[7] = test system: pigweed (Amaranthus retroflexus); test: as above
In short: as §1

[8] = test system: waterhemp (common waterhemp, Amaranthus rudis); test: as above
In short: as §1

[9] = test system: nutsedge, yellow (yellow nutsedge, Cyperus esculentus); test: as above
In short: as §1

soybean (Glycine max) = test: as above
In short: as §1

[10] = test system: oilseed rape (Brassica napus); test: as above
In short: as §1

[11] = test system: blackgrass (Alopecurus myosuroides); test: as above
In short: as §1

[12] = test system: foxtail, giant (giant foxtail, Setaria faberii); test: as above
In short: as §1

[13] = test system: crabgrass, large (large crabgrass, Digitaria sanguinalis); test: as above
In short: as §1

kochia (Kochia scoparia) = test: Test C greenhouse herbicide test, postemergence
In short: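 Visual injury scores (0–100, where 100 means complete control) were assigned 13 to 15 d after postemergence application, by comparison with untreated plants. Treated seedlings stood 2 to 18 cm tall, at the 1- to 4-leaf stage.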

[14] = Postemergence, 31 g ai/ha, 0 to 100 scale (0 no effect, 100 complete control)
[15] = Postemergence, 125 g ai/ha, scale 0 to 100, 0 is no effect, 100 is complete control
[16] = Postemergence, 250 g ai/ha, scale 0 to 100, 0 no effect, 100 complete control, 13 to 15 d
[17] = Preemergence, 31 g ai/ha, scale 0 to 100, 0 is no effect, 100 is complete control
[18] = Preemergence, 62 g ai/ha, scale 0 to 100, 0 is no effect, 100 is complete control
[19] = Preemergence, 125 g ai/ha, scale 0 to 100, 0 is no effect, 100 is complete control
[20] = Preemergence, 250 g ai/ha, scale 0 to 100 (0 no effect, 100 complete control)
[21] = postemergence, 62 g ai/ha, scale 0 to 100, 0 no effect, 100 complete control

COc1nn(C)c(=O)c(-c2c(C)ccc3ccccc23)c1O [Compound 54]
0: Plant response rating, Johnsongrass [4, 17] | Plant response rating, Johnsongrass [4, 18] | Wheat plant response rating [5, 14] | Plant response rating, Wheat [5, 15] | Plant response rating, Wheat [5, 16] | Plant response rating, Wheat [5, 17] | Plant response rating, Wheat [5, 18] | Plant response rating, Wheat [5, 19] | Wheat plant response rating [5, 20] | Corn plant response rating (corn (Zea mays); [14]) | Plant response rating, Corn (corn (Zea mays); [17]) | Corn plant response rating (corn (Zea mays); [20]) | Corn plant response rating (corn (Zea mays); [21]) | Plant response rating, Soybean (soybean (Glycine max); [17]) | Plant response rating, Soybean (soybean (Glycine max); [19])
90: Ryegrass, Italian plant response rating [1, 20] | Ragweed plant response rating [2, 14] | Plant response rating, Ragweed [2, 17] | Plant response rating, Ragweed [2, 18] | Plant response rating, Morningglory [6, 18] | Waterhemp plant response rating [8, 21] | Plant response rating, Soybean (soybean (Glycine max); [18]) | Plant response rating, Oilseed Rape [10, 18] | Plant response rating, Oilseed Rape [10, 19] | Plant response rating, Foxtail, Giant [12, 16] | Foxtail, Giant plant response rating [12, 20] | Plant response rating, Kochia (kochia (Kochia scoparia); [15]) | Kochia plant response rating (kochia (Kochia scoparia); [21])
70: Plant response rating, Nutsedge, Yellow [9, 16] | Nutsedge, Yellow plant response rating [9, 20] | Oilseed Rape plant response rating [10, 14] | Plant response rating, Oilseed Rape [10, 16] | Plant response rating, Oilseed Rape [10, 17] | Plant response rating, Foxtail, Giant [12, 17]
40: Plant response rating, Oilseed Rape [10, 15] | Plant response rating, Blackgrass [11, 16] | Plant response rating, Crabgrass, Large [13, 17] | Plant response rating, Crabgrass, Large [13, 18]
98: Plant response rating, Ragweed [2, 16] | Plant response rating, Morningglory [6, 15] | Morningglory plant response rating [6, 20] | Morningglory plant response rating [6, 21] | Plant response rating, Pigweed [7, 15] | Plant response rating, Waterhemp [8, 17]
95: Plant response rating, Ragweed [2, 15] | Plant response rating, Ragweed [2, 19] | Ragweed plant response rating [2, 21] | Lambsquarters plant response rating [3, 14] | Lambsquarters plant response rating [3, 21] | Morningglory plant response rating [6, 14] | Plant response rating, Morningglory [6, 19] | Pigweed plant response rating [7, 21] | Plant response rating, Waterhemp [8, 15] | Plant response rating, Waterhemp [8, 16] | Plant response rating, Kochia (kochia (Kochia scoparia); [16])
25: Plant response rating, Nutsedge, Yellow [9, 19] | Crabgrass, Large plant response rating [13, 21]
20: Soybean plant response rating (soybean (Glycine max); [20]) | Foxtail, Giant plant response rating [12, 14] | Crabgrass, Large plant response rating [13, 14]
60: Plant response rating, Blackgrass [11, 15] | Crabgrass, Large plant response rating [13, 20]
75: Plant response rating, Foxtail, Giant [12, 15] | Plant response rating, Foxtail, Giant [12, 19] | Plant response rating, Crabgrass, Large [13, 19]
35: Nutsedge, Yellow plant response rating [9, 21] | Plant response rating, Crabgrass, Large [13, 15]
55: Plant response rating, Ryegrass, Italian [1, 17] | Plant response rating, Nutsedge, Yellow [9, 15] | Plant response rating, Blackgrass [11, 18] | Plant response rating, Blackgrass [11, 19] | Foxtail, Giant plant response rating [12, 21] | Plant response rating, Crabgrass, Large [13, 16]
5: Johnsongrass plant response rating [4, 14] | Plant response rating, Johnsongrass [4, 19] | Johnsongrass plant response rating [4, 21] | Plant response rating, Corn (corn (Zea mays); [15]) | Plant response rating, Nutsedge, Yellow [9, 17] | Plant response rating, Nutsedge, Yellow [9, 18] | Soybean plant response rating (soybean (Glycine max); [14]) | Soybean plant response rating (soybean (Glycine max); [21]) | Blackgrass plant response rating [11, 21]
10: Plant response rating, Johnsongrass [4, 15] | Plant response rating, Johnsongrass [4, 16] | Johnsongrass plant response rating [4, 20] | Plant response rating, Corn (corn (Zea mays); [16]) | Plant response rating, Corn (corn (Zea mays); [18]) | Plant response rating, Corn (corn (Zea mays); [19]) | Nutsedge, Yellow plant response rating [9, 14] | Plant response rating, Soybean (soybean (Glycine max); [15]) | Plant response rating, Soybean (soybean (Glycine max); [16])
15: Blackgrass plant response rating [11, 14]
50: Ryegrass, Italian plant response rating [1, 14] | Plant response rating, Ryegrass, Italian [1, 18] | Wheat plant response rating [5, 21] | Plant response rating, Blackgrass [11, 17] | Kochia plant response rating (kochia (Kochia scoparia); [14])
85: Plant response rating, Ryegrass, Italian [1, 15] | Plant response rating, Lambsquarters [3, 18] | Pigweed plant response rating [7, 14] | Waterhemp plant response rating [8, 14]
80: Plant response rating, Ryegrass, Italian [1, 16] | Plant response rating, Ryegrass, Italian [1, 19] | Ryegrass, Italian plant response rating [1, 21] | Plant response rating, Lambsquarters [3, 17] | Plant response rating, Lambsquarters [3, 19] | Lambsquarters plant response rating [3, 20] | Plant response rating, Morningglory [6, 17] | Oilseed Rape plant response rating [10, 21] | Blackgrass plant response rating [11, 20] | Plant response rating, Foxtail, Giant [12, 18]
100: Ragweed plant response rating [2, 20] | Plant response rating, Lambsquarters [3, 15] | Plant response rating, Lambsquarters [3, 16] | Plant response rating, Morningglory [6, 16] | Plant response rating, Pigweed [7, 16] | Plant response rating, Pigweed [7, 17] | Plant response rating, Pigweed [7, 18] | Plant response rating, Pigweed [7, 19] | Pigweed plant response rating [7, 20] | Plant response rating, Waterhemp [8, 18] | Plant response rating, Waterhemp [8, 19] | Waterhemp plant response rating [8, 20] | Oilseed Rape plant response rating [10, 20]
